{"source": "paper PMC6385122", "about": "“Design and Synthesis of Arylamidine Derivatives as Serotonin/Norepinephrine Dual Reuptake Inhibitors” (Molecules, 2019)", "key": {"rats": {"tested_on": "rats", "test": "Tail suspension test (TST) in rats", "format": "in vivo, rat", "settings": "male rats, 30 mg/kg PO", "protocol": "Based on the in vitro results, compounds I-19, II-4, and II-5 were selected for the tail suspension test (TST) in rats. The TST has been used widely as a preclinical model for screening antidepressant activity, and it is sensitive to commercially available antidepressant drugs. In the assay, rats are suspended by tail and the time that the animal is immobile is recorded. The compounds were administered to male rats at a dose of 30 mg/kg (PO). […] In addition, the safety profile of compound II-5 was also explored with a preliminary acute toxicity test in mice at a single dose of 200 or 400 mg/kg (PO) (n = 6).\nFor two days before the formal experiment, the rats in each group were given doses orally once a day in the morning and in the afternoon. The rats were given doses orally once in each group in the formal experiment. After 60 min of administration, the rats were suspended head-down more than 50 cm from the ground with a 12-cm-long piece of insulating tape at a distance of 1 cm from the tail tip. The distance between adjacent rats was 15 cm. The immobility time of the rats was recorded. The rate of change in the immobility time of the rats in the test drug group and the positive control group was calculated and compared with the negative control group. Statistical analysis was performed using Prism 7.0 (GraphPad Software, San Diego, CA, USA)."}, "[1]": {"target": "T1, NE reuptake (NE transporter) (Rattus norvegicus, UniProt Q63380)", "T1 construct": "from tissue; host or cells: Wistar rat brain (procerebrum; crude synaptosomal supernatant)", "T1 sequence (Q63380 1-617)": "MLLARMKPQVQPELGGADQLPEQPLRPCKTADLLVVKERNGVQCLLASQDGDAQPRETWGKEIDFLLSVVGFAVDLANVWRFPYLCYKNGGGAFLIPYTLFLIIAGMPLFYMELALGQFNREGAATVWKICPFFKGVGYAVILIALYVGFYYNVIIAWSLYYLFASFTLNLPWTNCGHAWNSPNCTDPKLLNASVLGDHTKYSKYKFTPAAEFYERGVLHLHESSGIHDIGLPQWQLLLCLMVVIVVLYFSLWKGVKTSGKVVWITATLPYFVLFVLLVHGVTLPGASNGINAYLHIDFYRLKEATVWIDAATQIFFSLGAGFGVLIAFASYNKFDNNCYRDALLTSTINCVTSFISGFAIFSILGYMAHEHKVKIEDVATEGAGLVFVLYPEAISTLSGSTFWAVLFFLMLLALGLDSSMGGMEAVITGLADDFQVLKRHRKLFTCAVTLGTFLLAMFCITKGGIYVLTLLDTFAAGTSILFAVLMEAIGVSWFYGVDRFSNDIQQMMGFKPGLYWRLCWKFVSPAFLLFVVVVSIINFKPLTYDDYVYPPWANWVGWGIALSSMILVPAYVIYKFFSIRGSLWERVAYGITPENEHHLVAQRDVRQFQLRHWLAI", "test": "Inhibition of NE reuptake in rat brain synaptosome (3H-NE uptake)", "format": "biochemical", "protocol": "(§1) All the target compounds were evaluated for their inhibitory activity against the reuptake of 5-HT and NE at the cellular level. Rat brain tissue was used for the uptake test, which included ^3H-5-HT and ^3H-NE [15]. 1-[7,8-^3H]-Noradrenaline and 5-hydroxy-[^3H]-tryptamine trifluoroacetate were obtained from Amersham Corporation.\n(§2) Adult male Wistar rats were used. Animals were killed by decapitation and the whole brain, with the exception of the brainstem and cerebellum, was quickly removed. The procerebrum region was prepared, weighed, and homogenized in 10 volumes of ice-cold 0.32 mol/L sucrose solution using a glass homogenizer. The homogenate was centrifuged at 1000× g and 4 °C for 10 min. The supernatant was decanted and used for the uptake experiments. […] For each assay, three tubes were incubated with the vehicle (20 µL) at 0 °C in an ice bath. After incubation, the tubes were immediately filtered with a cell harvester. The fiberglass filter membrane was washed three times with ice-cold saline, placed in a scintillation vial, and counted in liquid scintillation cocktail (4 mL). Active uptake was the difference between the counts per minute at 37 and 0 °C. The percent inhibition at each drug concentration was the mean of three measurements."}, "[2]": {"test": "Preliminary acute toxicity test in mice", "format": "in vivo", "settings": "male, ICR, mouse, in vivo; mice, PO, 20 h", "protocol": "(§3) In the assay, rats are suspended by tail and the time that the animal is immobile is recorded. The compounds were administered to male rats at a dose of 30 mg/kg (PO).\n(§4) Male ICR mice (20–25 g) were used from Institute of Materia Medica, Chinese Academy of Medical Sciences, Beijing, China. Mice were randomly divided into two groups with six mice each. Mice were orally given II-5 with a single dose 200 and 400 mg/kg or vehicle control, respectively. The mouse death was monitored for 20 h after treatment."}, "mice": {"tested_on": "mice", "test": "Preliminary acute toxicity test in mice", "format": "in vivo", "settings": "male ICR mice, n = 6", "protocol": "as §3, §4"}, "[3]": {"target": "T2, 5-HT reuptake (5-HT transporter) (Rattus norvegicus, UniProt P31652)", "T2 construct": "from tissue; host or cells: Wistar rat brain (procerebrum; crude synaptosomal supernatant)", "T2 sequence (P31652 whole entry)": "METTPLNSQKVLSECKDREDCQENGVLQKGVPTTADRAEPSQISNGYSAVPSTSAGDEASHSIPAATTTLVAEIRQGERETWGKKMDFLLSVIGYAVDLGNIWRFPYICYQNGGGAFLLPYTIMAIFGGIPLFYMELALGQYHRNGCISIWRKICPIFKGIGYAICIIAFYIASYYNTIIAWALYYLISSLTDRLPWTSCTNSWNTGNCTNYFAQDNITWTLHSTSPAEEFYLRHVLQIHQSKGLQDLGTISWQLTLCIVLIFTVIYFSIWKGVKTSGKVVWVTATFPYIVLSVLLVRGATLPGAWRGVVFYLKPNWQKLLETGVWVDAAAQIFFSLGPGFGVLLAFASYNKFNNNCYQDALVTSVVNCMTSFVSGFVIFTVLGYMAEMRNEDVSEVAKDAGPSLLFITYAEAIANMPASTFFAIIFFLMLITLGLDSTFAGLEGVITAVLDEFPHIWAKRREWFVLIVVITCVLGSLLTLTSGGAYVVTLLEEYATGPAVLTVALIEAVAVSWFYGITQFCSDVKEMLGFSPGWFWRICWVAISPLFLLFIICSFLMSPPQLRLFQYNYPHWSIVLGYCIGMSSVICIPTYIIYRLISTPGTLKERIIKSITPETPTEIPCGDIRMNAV", "test": "Inhibition of 5-HT reuptake in rat brain synaptosome (3H-5-HT uptake)", "format": "biochemical", "protocol": "as §1, §2"}}, "note": "Structures can show the parent of a compound that is named as a salt."}
{"smiles": "Clc1ccccc1/C(=N\\Cc1cccc2ccccc12)N1CCNCC1", "note": "[II-5, (E)-N-((2-Chlorophenyl)(piperazin-1-yl)methylene)-1-(naphthalen-1-yl)methanaminehydrochloride]", "values": [{"measurement": "Immobility Time", "setting": "rats; 60 min after administration", "result": "18 ± 7", "unit": "s"}, {"measurement": "Rate of Shorten Time (%)", "setting": "rats; compared with the negative control group", "result": 67.8, "unit": "%"}, {"measurement": "IC50", "setting": "[1]", "result": 10, "unit": "nM"}, {"measurement": "inhibition at 10 µM", "setting": "[1]; 10 μM, read-out: NE reuptake percent inhibition", "result": 92, "unit": "%"}, {"measurement": "LD50 at 20 h", "setting": "[2]", "result": "> 400", "unit": "mg/kg"}, {"measurement": "Survival at 20 h", "setting": "mice; single dose 200 mg/kg PO", "result": 100, "unit": "%"}, {"measurement": "Survival at 20 h", "setting": "mice; single dose 400 mg/kg PO", "result": 100, "unit": "%"}, {"measurement": "IC50", "setting": "[3]", "result": 620, "unit": "nM"}, {"measurement": "inhibition at 10 µM", "setting": "[3]; 10 μM, read-out: 5-HT reuptake percent inhibition", "result": 81, "unit": "%"}]}
